PMC4520593, “Virtual Screening of Peptide and Peptidomimetic Fragments Targeted to Inhibit Bacterial Dithiol Oxidase DsbA” (PLoS ONE, 2015)

Experiments:
Oxidized EcDsbA = target: T1, Oxidized EcDsbA (Escherichia coli, UniProt P0AEG4); test: Isothermal titration calorimetry of compounds into EcDsbA; type: binding; settings: 25°C
T1 construct: made in house
Description: Oxidized EcDsbA was diluted to 50 μM in 25 mM HEPES pH 7.4, 50 mM NaCl and 5% DMSO. Compounds were dissolved in 100% DMSO, and then diluted to a final concentration of 2 mM into 25 mM HEPES pH 7.4 50 mM NaCl with a final DMSO concentration of 5%. All experiments were performed using the MicroCal Auto-ITC200 instrument (GE Healthcare, USA), loading 200 μL of EcDsbA in the sample cell and 40 μL of compound in the syringe. Titrations were set up at 25°C with 19 injections of 2 μL separated by 180 seconds and a constant stirring speed of 1000 rpm. A preliminary injection of 0.5 μL was added to avoid slow leakage of titrant into the sample cell before the first 2 μL injection and the corresponding data point was excluded from analysis. Every compound was tested with three technical replicates. An additional titration of compound into buffer only (25 mM HEPES pH 7.4, 50 mM NaCl and 5% DMSO) was performed to measure the background heat of dilution. Analysis was performed with the MicroCal Origin software (version 7.0552).

PmDsbA = target: PmDsbA; set-up: method as in PMID 24831013; settings: ITC; cited from earlier work

T1 sequence (P0AEG4 20-208): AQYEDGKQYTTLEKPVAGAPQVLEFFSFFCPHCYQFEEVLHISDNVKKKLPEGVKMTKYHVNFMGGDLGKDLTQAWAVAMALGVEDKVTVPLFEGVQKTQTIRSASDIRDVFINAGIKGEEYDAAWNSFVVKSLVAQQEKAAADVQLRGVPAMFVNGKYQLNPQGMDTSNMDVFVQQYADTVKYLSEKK

| Compound | ITC binding to EcDsbA (Oxidized EcDsbA; 50 μM EcDsbA, 2 mM compound in syringe, 5% DMSO) | release of energy for the highest peak (ITC) (Oxidized EcDsbA; titration of EcDsbA) [µcal/s] | Kd (PmDsbA) [µM] | ΔH (PmDsbA) [kcal/mol] | ΔS (PmDsbA) [cal.mol^-1.deg^-1] |
| --- | --- | --- | --- | --- | --- |
| O=C(NCc1ccccc1)[C@H](Cc1c[nH]c2ccccc12)NC(=O)N1CCOCC1 [Compound 1, (S)-2-[N-(Morpholine-1-carbonyl)amino]-3-(1H-indol-3-yl)-N-(benzyl)propanamide] | little evidence of binding | -0.60 |  |  |  |
| PWATCDS |  |  | 8.3 ± 0.4 | -13.7 ± 0.3 | -22.3±1.1 |
